Consider 26 compounds from patent US7846945B2, “Piperdine-based inhibitors of sodium glucose co-transporter 2 and methods of their use” (Lexicon Pharmaceuticals, Inc., priority 2007, dated 2010).

Some results are limits rather than exact numbers.

Broadly, the IC50 is the midpoint of a concentration-inhibition curve.

This test concerns the target T1, Human sodium/glucose co-transporter type 2 (SGLT2) (Homo sapiens, UniProt P31639).
T1 construct: HA; expressed in transfected cells
T1 sequence (P31639 1-672): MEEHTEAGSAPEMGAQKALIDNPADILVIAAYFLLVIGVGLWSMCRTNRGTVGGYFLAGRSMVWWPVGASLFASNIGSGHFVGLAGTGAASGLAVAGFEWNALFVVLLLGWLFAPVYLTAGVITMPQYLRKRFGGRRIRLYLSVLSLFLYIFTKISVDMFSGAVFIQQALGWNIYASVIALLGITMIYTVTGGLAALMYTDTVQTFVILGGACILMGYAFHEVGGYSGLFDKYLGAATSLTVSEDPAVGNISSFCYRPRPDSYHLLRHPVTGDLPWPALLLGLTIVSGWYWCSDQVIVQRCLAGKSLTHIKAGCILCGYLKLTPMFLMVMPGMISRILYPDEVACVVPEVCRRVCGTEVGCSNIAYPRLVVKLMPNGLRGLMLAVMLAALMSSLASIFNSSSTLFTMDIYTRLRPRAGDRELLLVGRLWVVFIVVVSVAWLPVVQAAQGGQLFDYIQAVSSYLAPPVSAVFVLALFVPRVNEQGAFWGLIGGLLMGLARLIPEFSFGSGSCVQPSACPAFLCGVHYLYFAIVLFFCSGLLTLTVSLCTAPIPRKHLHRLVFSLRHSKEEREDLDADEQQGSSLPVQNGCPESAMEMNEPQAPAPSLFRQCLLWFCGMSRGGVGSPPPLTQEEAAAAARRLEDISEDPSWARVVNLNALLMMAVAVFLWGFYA
As to the kind of experiment: In vitro human SGLT2 inhibition assay (14C-AMG uptake). It is filed as cell-based. Conditions: HEK293 cells expressing human HA-SGLT2; potent = SGLT2 IC50 of less than about 500 nM; read-out: SGLT2 IC50 (potent SGLT2 inhibitor mark). The procedure: HEK293 cells were transfected with the human HA-SGLT2-pIRESpuro2 vector and the bulk stable cell line was selected in presence of 0.5 μg/ml of puromycin. Human HA-SGLT2 cells were maintained in DMEM media containing 10% FBS, 1% GPS and 0.5 μg/ml of puromycin.
The HEK293 cells expressing the human HA-SGLT2 were seeded in 384 well plates (30,000 cells/well) in DMEM media containing 10% FBS, 1% GPS and 0.5 μg/ml of puromycin, then incubated overnight at 37 C, 5% CO2. Cells were then washed with uptake buffer (140 mM NaCl, 2 mM KCl, 1 mM CaCl2, 1 mM MgCl2, 10 mM HEPES, 5 mM Tris, 1 mg/ml bovine serum albumin (BSA), pH 7.3). Twenty microliters of uptake buffer with or without testing compounds were added to the cells. Then, 20 microliters of uptake buffer containing ^14C-AMG (100 nCi) were added to the cells. The cell plates were incubated at 37° C., 5% CO2 for 1-2 hours. After washing the cells with uptake buffer, scintillation fluid was added (40 microliters/well) and ^14C-AMG uptake was measured by counting radioactivity using a scintillation coulter (TopCoulter NXT; Packard Instruments).
The IC50 of a compound with regard to a given target is determined by fitting the relevant data, using the Levenburg Marquardt algorithm, to the equation: y=A+((B−A)/(1+((C/x)^D))) wherein A is the minimum y value; B is the maximum y value; C is the IC50; and D is the slope.
Regarding `CCOc1ccc(Cc2cc([C@@H]3O[C@H](SCC(F)(F)F)[C@@H](O)[C@H](O)[C@H]3O)ccc2Cl)cc1` [(2S,3R,4R,5S,6R)-2-[4-Chloro-3-(4-ethoxy-benzyl)-phenyl]-6-(2,2,2-trifluoro-ethylsulfanyl)-tetrahydro-pyran-3,4,5-triol], the IC50 was less than 500 nM.
As to `COCCOc1ccc(Cc2cc([C@@H]3OC(OC)[C@@H](O)[C@H](O)[C@H]3O)ccc2Cl)cc1` (stereo partly drawn) [(2S,3R,4R,5S)-2-{4-Chloro-3-[4-(2-methoxy-ethoxy)-benzyl]-phenyl}-6-methoxy-tetrahydro-pyran-3,4,5-triol], the IC50 is less than 500 nM.
On to `CCOc1ccc(Cc2cc([C@@H]3O[C@H](SC4CCOC4C)[C@@H](O)[C@H](O)[C@H]3O)ccc2Cl)cc1` (stereo partly drawn) [(2S,3R,4R,5S,6R)-2-[4-Chloro-3-(4-ethoxy-benzyl)-phenyl]-6-(2-methyl-tetrahydro-furan-3-ylsulfanyl)-tetrahydro-pyran-3,4,5-triol], for which the IC50 was less than 500 nM.
Turning to `COC1O[C@@H](c2ccc(Cl)c(Cc3ccc(OC4CCN(C)CC4)cc3)c2)[C@H](O)[C@@H](O)[C@@H]1O` (stereo partly drawn) [(2S,3R,4R,5S)-2-{4-Chloro-3-[4-(1-methyl-piperidin-4-yloxy)-benzyl]-phenyl}-6-methoxy-tetrahydro-pyran-3,4,5-triol], the IC50 was less than 500 nM.
On to `CCOc1ccc(Cc2cc([C@@H]3OC(OCC(F)(F)F)[C@@H](O)[C@H](O)[C@H]3O)ccc2Cl)cc1` (stereo partly drawn) [(2S,3R,4R,5S)-2-[4-Chloro-3-(4-ethoxy-benzyl)-phenyl]-6-(2,2,2-trifluoro-ethoxy)-tetrahydro-pyran-3,4,5-triol], for which the IC50 is less than 500 nM.
As to `CCOc1ccc(Cc2cc([C@@H]3O[C@H](SCC)[C@@H](O)[C@H](O)[C@H]3O)ccc2Cl)cc1` [(2S,3R,4R,5S,6R)-2-[4-Chloro-3-(4-ethoxy-benzyl)-phenyl]-6-ethylsulfanyl-tetrahydro-pyran-3,4,5-triol], the IC50 is less than 500 nM.
`COC1O[C@@H](c2ccc(Cl)c(Cc3ccc(OCCSC)cc3)c2)[C@H](O)[C@@H](O)[C@@H]1O` (stereo partly drawn) [(2S,3R,4R,5S)-2-{4-Chloro-3-[4-(2-methylsulfanyl-ethoxy)-benzyl]-phenyl}-6-methoxy-tetrahydro-pyran-3,4,5-triol]: the IC50 is less than 500 nM.
Take `CCOc1ccc(Cc2cc([C@@H]3O[C@H]([S+](C)[O-])[C@@H](O)[C@H](O)[C@H]3O)ccc2Cl)cc1` (stereo partly drawn) [(2S,3R,4R,5S,6R)-2-[4-Chloro-3-(4-ethoxy-benzyl)-phenyl]-6-methanesulfinyl-tetrahydro-pyran-3,4,5-triol]: the IC50 was less than 500 nM.
As for `CCOc1ccc(Cc2cc([C@@H]3OC(OCCS)[C@@H](O)[C@H](O)[C@H]3O)ccc2Cl)cc1` (stereo partly drawn) [(2S,3R,4R,5S)-2-[4-Chloro-3-(4-ethoxy-benzyl)-phenyl]-6-(2-mercapto-ethoxy)-tetrahydro-pyran-3,4,5-triol], the IC50 is less than 500 nM.
Under `COC1O[C@@H](c2cccc(Cc3ccc(OCCO)cc3)c2)[C@H](O)[C@@H](O)[C@@H]1O` (stereo partly drawn) [(2S,3R,4R,5S)-2-{3-[4-(2-Hydroxy-ethoxy)-benzyl]-phenyl}-6-methoxy-tetrahydro-pyran-3,4,5-triol] stands less than 500 nM; under `CCOc1ccc(Cc2cc([C@@H]3O[C@H](SC4CCCC4)[C@@H](O)[C@H](O)[C@H]3O)ccc2Cl)cc1` [(2S,3R,4R,5S,6R)-2-[4-Chloro-3-(4-ethoxy-benzyl)-phenyl]-6-cyclopentylsulfanyl-tetrahydro-pyran-3,4,5-triol], less than 500 nM.
Turning to `CCOc1ccc(Cc2cc([C@@H]3O[C@H](SC)[C@@H](O)[C@H](O)[C@H]3O)ccc2Cl)cc1` [(2S,3R,4R,5S,6R)-2-[4-Chloro-3-(4-ethoxy-benzyl)-phenyl]-6-methylsulfanyl-tetrahydro-pyran-3,4,5-triol], the half-maximal inhibitory concentration (IC50) was less than 500 nM.
On to `COC1O[C@@H](c2ccc(Cl)c(Cc3ccc(OCCO)cc3)c2)[C@H](O)[C@@H](O)[C@@H]1O` (stereo partly drawn) [(2S,3R,4R,5S)-2-{4-Chloro-3-[4-(2-hydroxy-ethoxy)-benzyl]-phenyl}-6-methoxy-tetrahydro-pyran-3,4,5-triol], for which the IC50 was less than 500 nM.
Consider `CCOc1ccc(Cc2cc([C@H]3[C@H](O)[C@@H](O)[C@H](O)CN3CC(C)C)ccc2Cl)cc1` [(2S,3S,4S,5R)-2-[4-Chloro-3-(4-ethoxy-benzyl)-phenyl]-1-isobutyl-piperidine-3,4,5-triol], for which the IC50 is less than 500 nM.
As to `CCOc1ccc(Cc2cc([C@@H]3OC(OCC(O)CO)[C@@H](O)[C@H](O)[C@H]3O)ccc2Cl)cc1` (stereo partly drawn) [(2S,3R,4R,5S)-2-[4-Chloro-3-(4-ethoxy-benzyl)-phenyl]-6-(2,3-dihydroxy-propoxy)-tetrahydro-pyran-3,4,5-triol], the IC50 was less than 500 nM.
As for `CCOc1ccc(Cc2cc([C@@H]3O[C@H](SCc4ccco4)[C@@H](O)[C@H](O)[C@H]3O)ccc2Cl)cc1` [(2S,3R,4R,5S,6R)-2-[4-Chloro-3-(4-ethoxy-benzyl)-phenyl]-6-(furan-2-ylmethylsulfanyl)-tetrahydro-pyran-3,4,5-triol], the IC50 was less than 500 nM.
The same measure for `CCOc1ccc(Cc2cc([C@@H]3O[C@H](OCCO)[C@@H](O)[C@H](O)[C@H]3O)ccc2Cl)cc1` [(2S,3R,4R,5S,6S)-2-[4-Chloro-3-(4-ethoxy-benzyl)-phenyl]-6-(2-hydroxy-ethoxy)-tetrahydro-pyran-3,4,5-triol]: less than 500 nM; for `CCOc1ccc(-c2cccc([C@@H]3OC(OC)[C@@H](O)[C@H](O)[C@H]3O)c2)cc1` (stereo partly drawn) [(2S,3R,4R,5S)-2-(4′-Ethoxy-biphenyl-3-yl)-6-methoxy-tetrahydro-pyran-3,4,5-triol]: less than 500 nM; for `CCCSC1O[C@@H](c2ccc(Cl)c(Cc3ccc(OCC)cc3)c2)[C@H](O)[C@@H](O)[C@@H]1O` (stereo partly drawn) [(2S,3R,4R,5S)-2-[4-Chloro-3-(4-ethoxy-benzyl)-phenyl]-6-propylsulfanyl-tetrahydro-pyran-3,4,5-triol]: less than 500 nM.
Consider `CCOc1ccc(Cc2cc([C@H]3[C@H](O)[C@@H](O)[C@H](O)CN3C(C)=O)ccc2Cl)cc1` [1-{(2S,3S,4S,5R)-2-[4-Chloro-3-(4-ethoxy-benzyl)-phenyl]-3,4,5-trihydroxy-piperidin-1-yl}-ethanone], for which the IC50 was less than 500 nM.
For `CCOc1ccc(C(O)c2cc([C@@H]3O[C@H](OC)[C@@H](O)[C@H](O)[C@H]3O)ccc2Cl)cc1` (stereo partly drawn) [(2S,3R,4R,5S,6S)-2-{4-Chloro-3-[(4-ethoxy-phenyl)-hydroxy-methyl]-phenyl}-6-methoxy-tetrahydro-pyran-3,4,5-triol], the IC50 is less than 500 nM.
The same measure for `CCOc1ccc(C(=O)c2cc([C@@H]3O[C@H](OC)[C@@H](O)[C@H](O)[C@H]3O)ccc2Cl)cc1` [[2-Chloro-5-((2S,3R,4R,5S,6S)-3,4,5-trihydroxy-6-methoxy-tetrahydro-pyran-2-yl)-phenyl]-(4-ethoxy-phenyl)-methanone]: less than 500 nM; for `COC1O[C@@H](c2ccc(Cl)c(Cc3ccc(O[C@H]4CCN(C)C4)cc3)c2)[C@H](O)[C@@H](O)[C@@H]1O` (stereo partly drawn) [(2S,3R,4R,5S)-2-{4-Chloro-3-[4-((S)-1-methyl-pyrrolidin-3-yloxy)-benzyl]-phenyl}-6-methoxy-tetrahydro-pyran-3,4,5-triol]: less than 500 nM.
On to `CCOc1ccc(Cc2cc([C@H]3[C@H](O)[C@@H](O)[C@H](O)CN3CC(N)=O)ccc2Cl)cc1` [2-{(2S,3S,4S,5R)-2-[4-Chloro-3-(4-ethoxy-benzyl)-phenyl]-3,4,5-trihydroxy-piperidin-1-yl}-acetamide], for which the IC50 was less than 500 nM.
For `CCOc1ccc(Cc2cc([C@@H]3OC(OCC(=O)OC)[C@@H](O)[C@H](O)[C@H]3O)ccc2Cl)cc1` (stereo partly drawn) [{(3S,4R,5R,6S)-6-[4-Chloro-3-(4-ethoxy-benzyl)-phenyl]-3,4,5-trihydroxy-tetrahydro-pyran-2-yloxy}-acetic acid methyl ester], the IC50 was less than 500 nM.
The same measure for `CCOc1ccc(Cc2cc([C@@H]3O[C@H]([S+]([O-])CC)[C@@H](O)[C@H](O)[C@H]3O)ccc2Cl)cc1` (stereo partly drawn) [(2S,3R,4R,5S,6R)-2-[4-Chloro-3-(4-ethoxy-benzyl)-phenyl]-6-ethanesulfinyl-tetrahydro-pyran-3,4,5-triol]: less than 500 nM.
